How the values were obtained:
[1] = tested on: Spodoptera littoralis (Egyptian Cotton Leafworm); assay: Example B1: activity against Spodoptera littoralis, larvicide, feeding/residual contact, preventive (cotton leaf discs); type: in vivo; details: foliar, 72 h, 3 days after treatment, L1 larvae
Source text: Activity Against Spodoptera littoralis (Egyptian Cotton Leafworm)
(§1) (Larvicide, Feeding/Residual Contact Activity, Preventive)
The samples are checked for mortality, repellent effect, feeding behaviour, and growth regulation 3 days after treatment. In this test, compounds listed in Table P above show good activity. In particular compounds P.1, P.2, P.3, P.4, P.5, P.6, P.7, P.9, P.10, P.11, P.12, P.13, P.15, P.16, P.17, P.18, P.19, P.20, P.21, P.22, P.23, P.24, P.25, P.26, P.27, P.28, P.29, P.30, P.31, P.32, P.33, P.34, P.35, P.36, P.37, P.38, P.39, P.40, P.41, P.42, P.43, P.44, P.45, P.46, P.47, P.48, P.49, P.50, P.51, P.52, P.53, P.54, P.55, P.56, P.57, P.58, P.59, P.60, P.61, P.63, P.64, P.67, P.68 and P.70 show an activity of over 80% at a concentration of 400 ppm.

[2] = tested on: Heliothis virescens (Tobacco Budworm); assay: Example B2: activity against Heliothis virescens, ovo-larvicide, feeding/contact, curative; type: in vivo; details: 96 h, 4 days incubation, eggs 0-24 h old
Experimental: Activity Against Heliothis virescens (Tobacco Budworm)
(Ovo-Larvicide, Feeding/Contact Activity, Curative)
Eggs (0-24 h old) are placed in 24-well microtiter plate on artificial diet and treated with test solutions by pipetting. After an incubation period of 4 days, samples are checked for egg mortality, larval mortality, and growth regulation.

[3] = tested on: Plutella xylostella (Diamond Back Moth); assay: Example B3: Plutella xylostella, larvicide, feeding/residual contact, preventive (artificial diet MTP); type: in vivo; details: 120 h, 5 days incubation, L2 larvae
Experimental: Plutella xylostella (Diamond Back Moth)
as §1
24-well microtiter plate (MTP) with artificial diet is treated with test solutions by pipetting. After drying, the MTP's are infested with larvae (L2)(10-15 per well). After an incubation period of 5 days, samples are checked for larval mortality, antifeedant and growth regulation. In this test, compounds listed in Table P above show good activity. In particular compounds P.1, P.2, P.3, P.4, P.5, P.6, P.7, P.9, P.10, P.11, P.12, P.13, P.15, P.16, P.17, P.18, P.19, P.20, P.21, P.22, P.23, P.25, P.26, P.27, P.28, P.29, P.30, P.31, P.32, P.33, P.34, P.35, P.36, P.37, P.38, P.39, P.40, P.41, P.42, P.43, P.44, P.46, P.47, P.48, P.49, P.50, P.51, P.52, P.53, P.54, P.55, P.56, P.57, P.58, P.59, P.60, P.61, P.63, P.64, P.67, P.68, P.69 P.70, P.72, P.74, P.77, P78 and P.79 show an activity of over 80% at a concentration of 400 ppm.

[4] = tested on: Diabrotica balteata (Corn Root Worm); assay: Example B4: Diabrotica balteata, larvicide, feeding/residual contact, preventive; type: in vivo; details: 120 h, 5 days incubation, L2 larvae
Experimental: Diabrotica balteata (Corn Root Worm)
as §1
After drying, the MTP's are infested with larvae (L2)(6-10 per well). After an incubation period of 5 days, samples are checked for larval mortality, antifeedant and growth regulation. In this test, compounds listed in Table P above show good activity. In particular compounds P.1, P.2, P.5, P.6, P.10, P.11, P.12, P.13, P.15, P.16, P.17, P.18, P.19, P.24, P.25, P.27, P.28, P.29, P.30, P.31, P.33, P.34, P.35, P.37, P.38, P.39, P.42, P.43, P.44, P.45, P.46, P.47, P.48, P.49, P.50, P.52, P.53, P.65, P.67, P.68, P.69, P.70, P.71, P.72, P.75, P.78, and P.79 show an activity of over 80% at a concentration of 400 ppm.

[5] = tested on: Myzus persicae (Green Peach Aphid); assay: Example B5: activity against Myzus persicae, mixed population, feeding/residual contact, preventive (sunflower leaf discs); details: foliar, 144 h, read-out: activity
[6] = tested on: Thrips tabaci (Onion Thrips); assay: Example B7: activity against Thrips tabaci, mixed population, feeding/residual contact, preventive; details: 144 h, read-out: activity

Measured: pest or weed control at 400 ppm

CC(C)NC(=O)c1c(NC(=O)c2cc(C(F)(F)F)nn2-c2ncccc2Cl)ccc2cc[nH]c12 [P.1]
> 80%: [1] | [2] | [3] | [4]

O=C(NCC1CC1)c1c(NC(=O)c2cc(C(F)(F)F)nn2-c2ncccc2Cl)ccc2cc[nH]c12 [P.2]
not listed: [6]
> 80%: all other assays above

CC(C)NC(=O)c1c(NC(=O)c2cc(C(F)(F)F)nn2-c2ncccc2Cl)ccc2cn[nH]c12 [P.3]
> 80%: [1] | [2] | [3] | [6]

O=C(NCC1CC1)c1c(NC(=O)c2cc(C(F)(F)F)nn2-c2ncccc2Cl)ccc2cn[nH]c12 [P.4]
> 80%: [1] | [2] | [3]

O=C(NC1(C2CC2)CC1)c1c(NC(=O)c2cc(C(F)(F)F)nn2-c2ncccc2Cl)ccc2cn[nH]c12 [P.5]
> 80%: [1] | [2] | [3] | [4]

CNC(=O)c1c(NC(=O)c2cc(C(F)(F)F)nn2-c2ncccc2Cl)ccc2cn[nH]c12 [P.6]
> 80%: [1] | [2] | [3] | [4]

CSCC(C)(C)NC(=O)c1c(NC(=O)c2cc(C(F)(F)F)nn2-c2ncccc2Cl)ccc2cn[nH]c12 [P.7]
> 80%: [1] | [2] | [3]

CC(C)(CS(C)(=O)=O)NC(=O)c1c(NC(=O)c2cc(C(F)(F)F)nn2-c2ncccc2Cl)ccc2cn[nH]c12 [P.9]
> 80%: [1] | [2] | [3] | [5]

CC(C)NC(=O)c1c(NC(=O)c2cc(C(F)(F)F)nn2-c2ncccc2Cl)c(Br)cc2cn[nH]c12 [P.16]
> 80%: all assays above

Cc1cc2c(ccc(C)[n+]2[O-])c(C(=O)NC(C)C)c1NC(=O)c1cc(C(F)(F)F)nn1-c1ncccc1Cl [P.21]
> 80%: [1] | [2] | [3]

CCNC(=O)c1c(NC(=O)c2cc(C(F)(F)F)nn2-c2ncccc2Cl)c(C)cc2nc(C)ccc12 [P.23]
> 80%: [1] | [2] | [3]

CCCc1nc2cc(C)c(NC(=O)c3cc(C(F)(F)F)nn3-c3ncccc3Cl)c(C(=O)NC(C)C)c2cc1CC [P.24]
> 80%: [1] | [4]

N#Cc1cc2cn[nH]c2c(C(=O)NC2(C3CC3)CC2)c1NC(=O)c1cc(C(F)(F)F)nn1-c1ncccc1Cl [P.26]
> 80%: [1] | [2] | [3] | [6]

COc1cc(C(=O)Nc2c(Cl)cc3c(Br)n[nH]c3c2C(=O)NC(C)C)n(-c2ncccc2Cl)n1 [P.63, 3-bromo-5-chloro-6-{[2-(3-chloro-pyridin-2-yl)-5-methoxy-2H-pyrazole-3-carbonyl]-amino}-1H-indazole-7-carboxylic acid isopropylamide]
> 80%: [1] | [2] | [3] | [6]

COc1cc(C(=O)Nc2c(Cl)cc3c(Br)n[nH]c3c2C(=O)NC2(C3CC3)CC2)n(-c2ncccc2Cl)n1 [P.64, 3-bromo-5-chloro-6-{[2-(3-chloro-pyridin-2-yl)-5-methoxy-2H-pyrazole-3-carbonyl]-amino}-1H-indazole-7-carboxylic acid bicyclopropyl-1-ylamide]
> 80%: [1] | [2] | [3] | [6]

CC(C)NC(=O)c1c(NC(=O)c2cc(C(F)(F)F)nn2-c2ncccc2Cl)c(Cl)cc2c(Br)n[nH]c12 [P.67]
not listed: [5]
> 80%: all other assays above

O=C(NC1(C2CC2)CC1)c1c(NC(=O)c2cc(C(F)(F)F)nn2-c2ncccc2Cl)c(Cl)cc2c(Br)n[nH]c12 [P.68]
not listed: [5]
> 80%: all other assays above

Cc1n[nH]c2c(C(=O)NC(C)C)c(NC(=O)c3cc(C(F)(F)F)nn3-c3ncccc3Cl)c(Cl)cc12 [P.69, 5-chloro-6-{[2-(3-chloro-pyridin-2-yl)-5-trifluoromethyl-2H-pyrazole-3-carbonyl]-amino}-3-methyl-1H-indazole-7-carboxylic acid isopropylamide]
> 80%: [2] | [3] | [4]

Cc1n[nH]c2c(C(=O)NC3(C4CC4)CC3)c(NC(=O)c3cc(C(F)(F)F)nn3-c3ncccc3Cl)c(Cl)cc12 [P.72, 5-chloro-6-{[2-(3-chloro-pyridin-2-yl)-5-trifluoromethyl-2H-pyrazole-3-carbonyl]-amino}-3-methyl-1H-indazole-7-carboxylic acid bicyclopropyl-1-ylamide]
> 80%: [2] | [3] | [4]

CNC(=O)c1c(NC(=O)c2cc(C(F)(F)F)nn2-c2ncccc2Cl)ccc2cccnc12 [P.74, 7-{[2-(3-chloro-pyridin-2-yl)-5-trifluoromethyl-2H-pyrazole-3-carbonyl]-amino}-quinoline-8-carboxylic acid methylamide]
> 80%: [2] | [3]

CC(C)NC(=O)c1c(NC(=O)c2cc(C(F)(F)F)nn2-c2ncccc2Cl)ccc2ncccc12 [P.75, 6-{[2-(3-chloro-pyridin-2-yl)-5-trifluoromethyl-2H-pyrazole-3-carbonyl]-amino}-quinoline-5-carboxylic acid isopropylamide]
> 80%: [4]

CNC(=O)c1c(NC(=O)c2cc(C(F)(F)F)nn2-c2ncccc2Cl)c(C)cc2ncccc12 [P.77, 6-{[2-(3-chloro-pyridin-2-yl)-5-trifluoromethyl-2H-pyrazole-3-carbonyl]-amino}-7-methyl-quinoline-5-carboxylic acid methylamide]
> 80%: [2] | [3]

C#Cc1cc2cn[nH]c2c(C(=O)NC2(C3CC3)CC2)c1NC(=O)c1cc(C(F)(F)F)nn1-c1ncccc1Cl [P.79, 6-{[2-(3-chloro-pyridin-2-yl)-5-trifluoromethyl-2H-pyrazole-3-carbonyl]-amino}-5-ethynyl-1H-indazole-7-carboxylic acid bicyclopropyl-1-ylamide]
> 80%: [3] | [4]
